For orientation: IC50 means the midpoint of a concentration-inhibition curve. For orientation: EC50 means the concentration giving half of the maximal effect. A lower EC50 goes with an effect from little substance.

Assay [1] has as its target T1, HIV protease (Human immunodeficiency virus type 1 group M subtype B, UniProt P04585).
T1 construct: HIV protease is diluted in the assay buffer to a final enzyme concentration of 12.3 nanomolar, based on a molecular weight of 10,780
In words: HIV protease enzyme assay. Type of assay: biochemical. Conditions: HIV protease 12.3 nanomolar; substrate 80 μM; pH 6.4; ambient temperature. An excerpt: The compounds of the present invention are effective HIV protease inhibitors. Utilizing an enzyme assay as described below, the compounds set forth in the examples herein disclosed inhibited the HIV enzyme. The preferred compounds of the present invention and their calculated IC50 (inhibiting concentration 50%, i.e., the concentration at which the inhibitor compound reduces enzyme activity by 50%) values are shown in Table 14. The enzyme method is described below. The substrate is 2-Ile-Nle-Phe(p-NO2)-Gln-ArgNH2. The positive control is MVT-101 (Miller, M. et al, Science, 246, 1149 (1989)] The assay conditions are as follows:
Assay buffer: 20 mM sodium phosphate, pH 6.4
The above described substrate is dissolved in DMSO, then diluted 10 fold in assay buffer. Final substrate concentration in the assay is 80 μM. HIV protease is diluted in the assay buffer to a final enzyme concentration of 12.3 nanomolar, based on a molecular weight of 10,780.
The final concentration of DMSO is 14% and the final concentration of glycerol is 18%. The test compound is dissolved in DMSO and diluted in DMSO to 10×the test concentration; 10 μl of the enzyme preparation is added, the materials mixed and then the mixture is incubated at ambient temperature for 15 minutes. The enzyme reaction is initiated by the addition of 40 μl of substrate. The increase in fluorescence is monitored at 4 time points (0, 8, 16 and 24 minutes) at ambient temperature. Each assay is carried out in duplicate wells.

The subject of assay [2] is HIV-1. In words: HIV inhibition assay in acutely infected CEM cells (tetrazolium/MTT based). In kind it is cell-based. Conditions: Human immunodeficiency virus 1, CCRF-CEM, 168 h, HIV-1 1000 TCID50, MTT, 7 days. As for the experimental part:
The effectiveness of various compounds were determined in the above-described enzyme assay and in a CEM cell assay.
The HIV inhibition assay method of acutely infected cells is an automated tetrazolium based calorimetric assay essentially that reported by Pauwles et al, J. Virol. Methods, 20, 309-321 (1988). Assays were performed in 96-well tissue culture plates. CEM cells, a CD4+ cell line, were grown in RPMI-1640 medium (Gibco) supplemented with a 10% fetal calf serum and were then treated with polybrene (2 μug/ml). An 80 μl volume of medium containing 1×10^4 cells was dispensed into each well of the tissue culture plate. To each well was added a 100 μl volume of test compound dissolved in tissue culture medium (or medium without test compound as a control) to achieve the desired final concentration and the cells were incubated at 37° C. for 1 hour. A frozen culture of HIV-1 was diluted in culture medium to a concentration of 5×10^4 TCID50 per ml (TCID50 =the dose of virus that infects 50% of cells in tissue culture), and a 20 μl volume of the virus sample (containing 1000 TCID50 of virus) was added to wells containing test compound and to wells containing only medium (infected control cells). Several wells received culture medium without virus (uninfected control cells). Likewise, the intrinsic toxicity of the test compound was determined by adding medium without virus to several wells containing test compound. In summary, the tissue culture plates contained the following experiments:
In experiments 2 and 4 the final concentrations of test compounds were 1, 10, 100 and 500 μg/ml. Either azidothymidine (AZT) or dideoxyinosine (ddI) was included as a positive drug control. […] DMSO was added to all control wells at an appropriate concentration.
Following the addition of virus, cells were incubated at 37° C. in a humidified, 5% CO2 atmosphere for 7 days. Test compounds could be added on days 0, 2 and 5 if desired. On day 7,post-infection, the cells in each well were resuspended and a 100 μl sample of each cell suspension was removed for assay. A 20 μL volume of a 5 mg/ml solution of 3-(4,5-dimethylthiazol-2-yl)-2,5-diphenyltetrazolium bromide (MTT) was added to each 100 μL cell suspension, and the cells were incubated for 4 hours at […] in a 5% CO2 environment. […] To each sample was added 100 μl of 10% sodium dodecylsulfate in 0.01N HC1 to lyse the cells, and samples were incubated overnight. The absorbance at 590 nm was determined for each sample using a Molecular Devices microplate reader. Absorbance values for each set of wells is compared to assess viral control infection, uninfected control cell response as well as test compound by cytotoxicity and antiviral efficacy.

In assay [1], `CC(C)CN(C[C@@H](O)[C@H](Cc1ccccc1)NC(=O)[C@H](C)CS(=O)(=O)CCc1ccccn1)S(=O)(=O)c1ccc2c(c1)OCO2` gave an IC50 of 3 nM. The EC50 in assay [2] was 6 nM.

Compound `CC(C)CN(C[C@@H](O)[C@H](Cc1ccccc1)NC(=O)[C@H](C)CS(=O)(=O)CC(=O)NCC[N+]1([O-])CCCC1)S(=O)(=O)c1ccc2c(c1)OCO2` [Example 2] gave an IC50 in assay [1] of 10 nM. The compound `CC(C)CN(C[C@@H](O)[C@H](Cc1ccccc1)NC(=O)[C@H](C)CS(=O)(=O)CCC(=O)N1CCN(C(=O)OC(C)(C)C)CC1)S(=O)(=O)c1ccc2c(c1)OCO2` [Example 3] had a concentration for half-maximal inhibition (IC50) in assay [1] of 4 nM. `CC(C)CN(C[C@@H](O)[C@H](Cc1ccccc1)NC(=O)[C@H](C)CS(=O)(=O)CCC(=O)N1CCNCC1)S(=O)(=O)c1ccc2c(c1)OCO2` [Example 4] registered an IC50 in assay [1] of 4 nM. For `CC(C)CN(C[C@@H](O)[C@H](Cc1ccccc1)NC(=O)[C@H](C)CS(=O)(=O)CC(=O)NCC[N+]1([O-])CCOCC1)S(=O)(=O)c1ccc2c(c1)OCO2` [Example 5], the IC50 in assay [1] came out at 10 nM. Turning to `CC(C)CN(C[C@@H](O)[C@H](Cc1ccccc1)NC(=O)[C@H](C)CS(=O)(=O)CCC(=O)N1CCOCC1)S(=O)(=O)c1ccc2c(c1)OCO2` [Example 6], the half-inhibitory concentration (IC50) in assay [1] was determined as 24 nM. The EC50 in assay [2] was found to be 123 nM. Regarding `CC(C)CN(C[C@@H](O)[C@H](Cc1ccccc1)NC(=O)[C@H](C)CS(=O)(=O)CC(=O)N1CCN(C(=O)OC(C)(C)C)CC1)S(=O)(=O)c1ccc2c(c1)OCO2` [Example 7], in assay [1], the IC50 came to 7 nM. In turn, `CC(C)CN(C[C@@H](O)[C@H](Cc1ccccc1)NC(=O)[C@H](C)CS(=O)(=O)CC(=O)N1CCNCC1)S(=O)(=O)c1ccc2c(c1)OCO2` [Example 8] had an IC50 in assay [1] of 27 nM. Consider `CC(C)CN(C[C@@H](O)[C@H](Cc1ccccc1)NC(=O)[C@H](C)CS(=O)(=O)CC(=O)c1ccccc1)S(=O)(=O)c1ccc2c(c1)OCO2` [Example 9], for which the IC50 in assay [1] was found to be 4 nM. The same compound yielded a concentration for a half-maximal effect (EC50) in assay [2] of 39 nM. In turn, `CC(C)CN(C[C@@H](O)[C@H](Cc1ccccc1)NC(=O)[C@H](C)CS(=O)(=O)CC(=O)N1CCS(=O)(=O)CC1)S(=O)(=O)c1ccc2c(c1)OCO2` [Example 10] displayed a half-inhibitory concentration (IC50) in assay [1] of 16 nM. On the same count and under the same terms, next, `CCOC(=O)CCCSC[C@@H](C)C(=O)N[C@@H](Cc1ccccc1)[C@H](O)CN(CC(C)C)S(=O)(=O)c1ccc2c(c1)OCO2` [Example 11]: 22 nM. As for `CC(C)CN(C[C@@H](O)[C@H](Cc1ccccc1)NC(=O)[C@H](C)CS(=O)(=O)Cc1c[nH]cn1)S(=O)(=O)c1ccc2c(c1)OCO2` [Example 12], in assay [1], it took 7 nM to reach half-maximal inhibition (IC50). In assay [2], this compound displayed a concentration for a half-maximal effect (EC50) of 187 nM. As to `CC(C)CN(C[C@@H](O)[C@H](Cc1ccccc1)NC(=O)[C@H](C)CS(=O)(=O)Cc1cc[nH]n1)S(=O)(=O)c1ccc2c(c1)OCO2` [Example 13], the IC50 in assay [1] came out at 5 nM. The same compound displayed an EC50 in assay [2] of 71 nM. As to `CC(C)CN(C[C@@H](O)[C@H](Cc1ccccc1)NC(=O)[C@H](C)CS(=O)(=O)Cc1cn[nH]c1)S(=O)(=O)c1ccc2c(c1)OCO2` [Example 14], the IC50 in assay [1] turned out to be 4 nM. In assay [2], this compound displayed an EC50 of 81 nM. In the same order, the values of `CC(C)CN(C[C@@H](O)[C@H](Cc1ccccc1)NC(=O)[C@H](C)CS(=O)(=O)Cc1nc2ccccc2[nH]1)S(=O)(=O)c1ccc2c(c1)OCO2` [Example 15] are 3 nM and 47 nM.

The compound `CC(C)CN(C[C@@H](O)[C@H](Cc1ccccc1)NC(=O)[C@H](C)CS(=O)(=O)Cc1cncs1)S(=O)(=O)c1ccc2c(c1)OCO2` [Example 16] registered a concentration for half-maximal inhibition (IC50) in assay [1] of 4 nM. For the same compound, in assay [2], a half-maximal response (EC50) required 21 nM. As for `CC(C)CN(C[C@@H](O)[C@H](Cc1ccccc1)NC(=O)[C@H](C)CS(=O)(=O)C[C@H]1CCCN1)S(=O)(=O)c1ccc2c(c1)OCO2` [Example 17], the half-maximal inhibitory concentration (IC50) in assay [1] is 4 nM. In assay [2], this compound showed an EC50 of 160 nM. Take `CC(C)CN(C[C@@H](O)[C@H](Cc1ccccc1)NC(=O)[C@H](C)CS(=O)(=O)C[C@@H]1CCCN1)S(=O)(=O)c1ccc2c(c1)OCO2` [Example 18]: inhibition in assay [1] was half-maximal at 6 nM (IC50).

`CC(C)CN(C[C@@H](O)[C@H](Cc1ccccc1)NC(=O)[C@H](C)CS(=O)(=O)c1ccccn1)S(=O)(=O)c1ccc2c(c1)OCO2` [Example 19] displayed a concentration for half-maximal inhibition (IC50) in assay [1] of 11 nM. This compound returned a concentration giving a half-maximal response (EC50) in assay [2] of 174 nM. `CC(C)CN(C[C@@H](O)[C@H](Cc1ccccc1)NC(=O)[C@H](C)CS(=O)(=O)CC(CO)CO)S(=O)(=O)c1ccc2c(c1)OCO2` [Example 20] showed a concentration for half-maximal inhibition (IC50) in assay [1] of 4 nM. In turn, `COC1O[C@H](CS(=O)(=O)C[C@@H](C)C(=O)N[C@@H](Cc2ccccc2)[C@H](O)CN(CC(C)C)S(=O)(=O)c2ccc3c(c2)OCO3)[C@@H](O)[C@H]1O` (some centres unmarked) [Example 21] showed a concentration for half-maximal inhibition (IC50) in assay [1] of 9 nM. For the compound `CC(C)CN(C[C@@H](O)[C@H](Cc1ccccc1)NC(=O)[C@H](C)CSCC(=O)N1CCOCC1)S(=O)(=O)c1ccc2c(c1)OCO2` [Example 22], 63 nM corresponded to half-maximal inhibition in assay [1] (IC50). The compound `CC(C)CN(C[C@@H](O)[C@H](Cc1ccccc1)NC(=O)[C@H](C)CSCC(=O)N1CCN(C(=O)OC(C)(C)C)CC1)S(=O)(=O)c1ccc2c(c1)OCO2` [Example 23] yielded a concentration for half-maximal inhibition (IC50) in assay [1] of 12 nM. Consider `CC(C)CN(C[C@@H](O)[C@H](Cc1ccccc1)NC(=O)[C@H](C)CSCC(=O)N1CCSCC1)S(=O)(=O)c1ccc2c(c1)OCO2` [Example 24], for which, in assay [1], it took 25 nM to reach half-maximal inhibition (IC50). Regarding `CC(C)CN(C[C@@H](O)[C@H](Cc1ccccc1)NC(=O)[C@H](C)CS(=O)(=O)C[C@H]1CCCN1C(=O)OCc1ccccc1)S(=O)(=O)c1ccc2c(c1)OCO2` [Example 25], in assay [1], half-maximal inhibition (IC50) required 6 nM. Moreover, the EC50 in assay [2] stood at 43 nM.

For `CC(C)CN(C[C@@H](O)[C@H](Cc1ccccc1)NC(=O)[C@H](C)CSCCC(=O)N1CCN(C(=O)OC(C)(C)C)CC1)S(=O)(=O)c1ccc2c(c1)OCO2` [Example 26], in assay [1], the IC50 turned out to be 16 nM. In turn, `CC(C)CN(C[C@@H](O)[C@H](Cc1ccccc1)NC(=O)[C@H](C)CSCC(=O)NCCN1CCCC1)S(=O)(=O)c1ccc2c(c1)OCO2` [Example 27] displayed an IC50 in assay [1] of 75 nM.

(Values after patent US5753660A, “Substituted sulfonylalkanoylamino hydroxyethylamino sulfonamide retroviral protease inhibitors” (G. D. Searle & Co., priority 1996, dated 1998).)
